Data set [1] has as its system CCRF-CEM human lymphoblastic leukemic cells. Put plainly: In vitro cytotoxicity against CCRF-CEM cells. It is filed as cell-based. Particulars: 48 hr. As to the method: ^a Human lymphoblastic leukemic cells.
The analogues were tested for their cytotoxicity against tumor cells (time, 48 hr). […] This may be associated with the initial microsomal transformation of the "reverse" analogues to "symmetrical" analogue and/or other alternate bioactive forms (e.g., free-radicals, O2^-), followed by deactivation via formation of conjugates and facile elimination of these from the host. The "reverse" analogues show reduced toxicity in vivo and also the tritiated "reverse" 7a is metabolized in vitro.

Data set [2] relates to P388 cells. Put plainly: Inhibition of RNA synthesis (2-[14C]uridine incorporation) in P388 cells. Particulars: for IC50: 50% reduction in 1 hr of 2-[14C]uridine incorporation, read-out: IC50 RNA synth; for IC50 DNA/IC50 RNA: ratio. It is filed as cell-based, murine. Here is the method: (§1) Experiments for inhibition of nucleic acid synthesis in tumor cells in vitro were carried out with P388 tumor cells, details of which were reported by Sengupta et al, J. Med. Chem., 18, 1175 (1975). […] AMD-OZLs inhibit either process with equal activity and with the potency of its metabolite 7-hydroxy-AMD.
^b IC50 (RNA) = concentration of inhibitor in μM required to
cause 50% reduction (in 1 hr) in 2[^14 C]uridine incorporation into
acid precipitable material with use of P388 cells.

For data set [3], the system named is P388 cells. The data set can be described thus: Inhibition of DNA synthesis (methyl-[3H]thymidine incorporation) in P388 cells. It is filed as cell-based, murine. Particulars: 50% reduction in 1 hr of methyl-[3H]thymidine incorporation, read-out: IC50 DNA synth. As to the method:
as §1
^c IC50 (DNA) = concentration of inhibitor in μM required to
cause 50% reduction (in 1 hr) in methyl[^3 H]thymidine incorporation
into acid precipitable material with use of P388 cells.
Background: Dividing cells build labelled thymidine or BrdU into new DNA.

The test system of data set [4] is P388 lymphocytic leukemia. The data set can be described thus: In vivo antitumor activity against P388 leukemia. The following applies: for surv (surviving mice/total mice at 60 days) / % ILS / MST (range): P388, at optimal dose; for % ILS: 100(T/C - 1); for MST (range): control 11.0 (9-12); for optimal dose: P388, ip, days 1, 5 and 9, optimal nontoxic dose. Set-up: species or system BDF1 mice. Here is the method:
The analogues were tested for their antitumor activities in P388 lymphocytic leukemia in male BDF1 mice. The tumor was implanted intraperitoneally (ip) with 10^6 cells. The drugs were also administered ip once daily on days 1, 5 and 9, beginning 1 day after tumor transplantation. Analogues were tested over a range of doses, but only the optimal nontoxic doses are listed.
^a 10^6 P388 cells implanted ip on day 0 into groups of eight
BDF1 male mice. Drugs administered ip. MST (range), median survival
time in days (range of individual animal deaths); % ILS, percent increase
in life span, calculated 100(T/C - 1), where T and C are median survival
times of treated and control animals; surv, number of surviving mice/tota

For a further data set, the system named is B16 melanoma. Put plainly: In vivo antitumor activity against B16 melanoma. The following applies: for % ILS / surv (survivors on day 65/total injected) / MST (range): at optimal dose; for MST (range): control 29 (20-48); for optimal dose: ip, days 1, 5, 9. Set-up: species or system BDF1 mice. Here is the method:
AMD-OZL analogues 9a and 10a were about as active as AMD and 7-hydroxy-AMD. The potencies of these analogues are reduced in comparison to that of AMD; their optimal doses were higher than that of AMD.
^a 0.2 mL of 1:5 (weight/volume) brei of B16 melanoma implanted
ip on day 0 in groups of nine BDF1 mice. Drugs administered ip.
^b MST (range) median survival time in days (range of individual
^c % ILS (surv), percent increase in lifespan (survivors on day

Data set [5] in a line: Maximum tolerated dose (LD10) in tumor-free BDF1 male mice. Particulars: for MTD (maximum tolerated dose): lethal dose for 10% normal BDF1 male mice, 21 days (LD10), ip days 1, 5 and 9. It is filed as in vivo. As to the method:
(§2) These analogues were also tested in tumor-free BDF1 male mice for determination of their MTD values (Table VIII). The animals (18-22 g) were given a broad range of doses of drugs in 5% dimethyl sulfoxide-saline on days 1, 5 and 9. Drugs were administered ip and the maximum tolerated doses of agents which caused death in only 10% of the tested animals in 21 days (i.e., LD10) were recorded as MTD. […] However, the MED values of 7-hydroxy-AMD and its precursor AMD-OZL 10a are high and are seven to tenfold of the MED values of 4a and 8a. On the basis of these MED values, the therapeutic indices of 8a and 4a are 70 and 96. The therapeutic index of 2a is 13, of 10a 10, and of AMD only 4.
^c MTD (maximum tolerated dose) is the lethal dose
(milligram/kilogram) for 10% normal BDF1 male mice (18-22 g); animal
calculated from a plot of logdose vs. percent mortality.

In a further data set the test system is P388 Leukemia. Put plainly: Minimum effective dose and therapeutic index vs. P388 leukemia. Particulars: dose giving 45% increase in life span in P388 tumor bearing mice; ip days 1, 5 and 9. It is filed as in vivo. Here is the method:
as §2
^a Drugs administered ip once on days 1, 5 and 9 starting 1 day after
tumor implantation. Determinations were made from analysis of plotted
^b MED (minimum effective dose) is the dose (milligram/kilogram)
providing an increase in life span of 45% over control in P388 tumor

Data set [6] has as its target T1, NADPH cytochrome P-450 reductase (rat liver microsomes) (Rattus norvegicus, UniProt P00388).
T1 sequence (P00388 1-678): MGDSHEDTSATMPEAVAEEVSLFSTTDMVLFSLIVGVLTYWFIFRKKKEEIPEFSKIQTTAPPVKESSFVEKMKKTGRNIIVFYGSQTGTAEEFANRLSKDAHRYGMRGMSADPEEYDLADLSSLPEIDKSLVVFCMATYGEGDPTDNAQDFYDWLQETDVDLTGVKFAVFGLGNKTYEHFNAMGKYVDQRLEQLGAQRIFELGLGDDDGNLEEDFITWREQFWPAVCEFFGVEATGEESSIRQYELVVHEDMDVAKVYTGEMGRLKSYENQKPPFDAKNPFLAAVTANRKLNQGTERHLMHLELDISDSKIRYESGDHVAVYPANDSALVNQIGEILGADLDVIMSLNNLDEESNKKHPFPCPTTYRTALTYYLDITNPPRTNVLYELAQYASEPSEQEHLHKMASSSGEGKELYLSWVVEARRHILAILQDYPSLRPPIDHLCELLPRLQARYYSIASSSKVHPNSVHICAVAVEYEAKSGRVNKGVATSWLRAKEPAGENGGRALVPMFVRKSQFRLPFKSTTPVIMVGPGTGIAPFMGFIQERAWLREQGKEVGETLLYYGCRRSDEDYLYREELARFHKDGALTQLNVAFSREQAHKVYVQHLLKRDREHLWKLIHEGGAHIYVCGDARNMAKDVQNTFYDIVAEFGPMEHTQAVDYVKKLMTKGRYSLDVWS
The data set can be described thus: Stimulation of NADPH oxidation in rat hepatic microsomal incubations.

The subject of the next data set is rat hepatic microsomes. The data set can be described thus: Stimulation of adrenochrome formation (superoxide generation) in rat hepatic microsomal incubations.
The subject of another data set is P388/S. The data set can be described thus: In vivo activity against P388/S (adriamycin sensitive) leukemia, Table VII. On the set-up: species or system BDF1 mice. Here is the method:
(§3) ^a Male BDF1 mice inoculated ip: 10^6 cells inoculum, day 0.
(§4) Drugs administered in 10% dimethyl sulfoxidesaline on days 1, 5 and 9. %
(§5) ILS = percent increase in life span. Fractions in parentheses = tumorfree
(§6) survivors/total on day 60. P388/S (adriamycin sensitive) and P388/ADR
(§7) (adriamycin resistant) tumors were evaluated in the same experiment with […]

A further data set relates to P388/ADR. The data set can be described thus: In vivo activity against P388/adriamycin-resistant leukemia. Set-up: species or system BDF1 mice. Here is the method: as §3, §4, §5, §6, §7

With `Cc1c2oc3c(C)c(O)cc(C(=O)N[C@@H]4C(=O)N[C@H](C(C)C)C(=O)N5CCC[C@H]5C(=O)N(C)CC(=O)N(C)[C@@H](C(C)C)C(=O)O[C@@H]4C)c3nc-2c(C(=O)N[C@@H]2C(=O)N[C@H](C(C)C)C(=O)N3CCC[C@H]3C(=O)N(C)CC(=O)N(C)[C@@H](C(C)C)C(=O)O[C@@H]2C)c(N)c1=O` [2a, 7-hydroxyactinomycin D, reference compound], the “in vitro (CCRF-CEM) ID50” value in [1] is 1 µM. Moreover, in the data set with P388 cells [2], the concentration for half-maximal inhibition (IC50) is 5.1 µM and the “IC50 DNA/IC50 RNA” value is 1.00. Moreover, the half-inhibitory concentration (IC50) with P388 cells [3] is 5.1 µM. In data set [4], the “surv (surviving mice/total mice at 60 days)” value is reported as 0/8, the “% ILS” value came out at 136%, the “MST (range)” value is 26.0 (19-39) days and the optimal dose stood at 1200.0 μg/kg per inj. Further, in the data set with B16 melanoma, the “% ILS” value was found to be 52%, the “surv (survivors on day 65/total injected)” value is recorded as 1/9, the “MST (range)” value is 44 (39-53) days and the optimal dose is listed as 1200 μg/kg per inj. Moreover, the “MTD (maximum tolerated dose)” value in data set [5] is reported as 3.50 milligram/kilogram. Also, in [5] (tumor-free BDF1 male mice), the “MTD as fold of the MTD of AMD” value is reported as “about 14 fold”. The “MED (minimum effective dose)” value in the data set on P388 Leukemia turned out to be 0.275 milligram/kilogram. Besides, in data set [6] (340 nm, 37° C., phenobarbital induced microsomes, mean ± standard error of triplicate, basal 9.11 ± 0.30), the NADPH oxid is recorded as 29.9 ± 1.91 nmol min^-1 (mg of protein)^-1. Moreover, the “percentage stimulation of NADPH oxidation over basal rate” value in data set [6] ((drug-stimulated rate - basal rate)/basal rate × 100) stood at 228%. The adrenochrome formation with rat hepatic microsomes (480 nm, 37° C., no SOD, no more than 100 μM drug, basal 2.11 ± 0.11) is recorded as 7.29 ± 0.79 nmol min^-1 (mg of protein)^-1. In addition, in the data set with rat hepatic microsomes (SOD (superoxide dismutase) 5 μg/mL added), the “adrenochrome formation in presence of SOD” value is on record as “inhibited”. Moreover, the “percentage stimulation of adrenochrome formation over basal rate” value in the data set with rat hepatic microsomes (no SOD) amounted to 245%.

`Cc1c2oc3c(C)c4oc(-c5ccccc5)nc4c(C(=O)NC4C(=O)NC(C(C)C)C(=O)N5CCCC5C(=O)N(C)CC(=O)N(C)C(C(C)C)C(=O)OC4C)c3nc-2c(C(=O)NC2C(=O)NC(C(C)C)C(=O)N3CCCC3C(=O)N(C)CC(=O)N(C)C(C(C)C)C(=O)OC2C)cc1=O` (stereo not drawn) [10a, 2-Phenyl-AMD--OZL]: the “in vitro (CCRF-CEM) ID50” value in data set [1] came to 0.5 µM. Moreover, in the data set with P388 cells [2], the IC50 was 3.2 µM and the “IC50 DNA/IC50 RNA” value was found to be 1.78. Moreover, the half-maximal inhibitory concentration (IC50) in the data set with P388 cells [3] came to 5.7 µM. In addition, in data set [4], the “surv (surviving mice/total mice at 60 days)” value is 2/8, the “% ILS” value is reported as 186%, the “MST (range)” value is on record as 31.5 (29-57) days and the optimal dose came out at 1000.0 μg/kg per inj. For the same molecule, in the data set with B16 melanoma, the “% ILS” value was determined as 55%, the “surv (survivors on day 65/total injected)” value is reported as 2/9, the “MST (range)” value is on record as 45 (33-56) days and the optimal dose worked out at 900 μg/kg per inj. In addition, in the data set with P388/S (at optimal dose), the “P388/S % ILS” value is listed as 186% and the “P388/S tumor-free survivors/total on day 60” value is given as 2/8. Besides, the P388/S optimal dose with P388/S (ip, days 1, 5 and 9) is reported as 1.0 mg/kg. Moreover, in the data set on P388/ADR (at optimal dose), the “P388/ADR % ILS” value turned out to be 88%. Further, the P388/ADR optimal dose in the data set with P388/ADR (ip, days 1, 5 and 9) is listed as 1.2 mg/kg. The “MTD (maximum tolerated dose)” value in [5] was 2.0 milligram/kilogram. Further, the “MED (minimum effective dose)” value with P388 Leukemia was 0.20 milligram/kilogram.

By IC50 is commonly meant the concentration needed to halve the response being measured.

The record behind these values is patent US4680382A, “Analogues of actinomycin D” (priority 1986, dated 1987).
